Measured values: US11434258B2, “Compounds (immunorhelins)” (ISR IMMUNE SYSTEM REGULATION HOLDING AB (PUBL), priority 2017, dated 2022)
Non-standard residues stand in square brackets, D forms with d. Residues, ends and D or L forms follow the SMILES beside them. *: point of attachment. dHis(τ-Bn) = N[C@H](Cc1cn(Cc2ccccc2)cn1)C(=O)O; d2Nal = N[C@H](Cc1ccc2ccccc2c1)C(=O)O; pGlu = O=C1CC[C@@H](C(=O)O)N1; tBu = CC(C)(C)*

How the values were obtained:
GnRHR = target: T1, GnRHR (Homo sapiens, UniProt P30968); test: Calcium assay in CHO-K1 cells (Genscript), FLIPR; format: cell-based; conditions: CHO-K1/GnRHR/Ga15 cells, relative to agonist control, read-out: GNRHR Stimulation at 1 μM
T1 construct: host or cells: CHO-K1 (CHO-K1/GnRHR/Ga15)
T1 sequence (P30968 1-328): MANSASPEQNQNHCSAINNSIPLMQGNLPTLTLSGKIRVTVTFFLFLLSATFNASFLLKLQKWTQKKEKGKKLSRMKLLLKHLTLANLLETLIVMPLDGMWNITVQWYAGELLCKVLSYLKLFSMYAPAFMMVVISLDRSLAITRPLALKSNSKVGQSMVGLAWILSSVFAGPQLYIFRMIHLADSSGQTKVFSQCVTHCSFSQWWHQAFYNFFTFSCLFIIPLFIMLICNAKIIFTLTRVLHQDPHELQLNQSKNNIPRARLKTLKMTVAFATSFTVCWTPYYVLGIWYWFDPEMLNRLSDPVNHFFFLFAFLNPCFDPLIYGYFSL
Method: Test article sample solutions were dissolved in HBSS buffer (with 20 mM HEPES buffer, pH 7.4) to form the 5× working solution. FLIPR® Calcium 4 assay kit from Molecular devices (R8141) was used as required. In brief, CHO-K1 cells expressing GnRHR (CHO-K1/GnRHR/Ga15, Genscript accession NM_000406) were respectively cultured in the 10-cm dishes and maintained at 37° C./5% CO2. CHO-K1 cells expressing GNRHR were respectively seeded in a 384-well black-wall, clear-bottom plate at a density of 15,000 cells per well in 20 μl of growth medium about 18 hours prior to the day of experiment and maintained at 37° C./5% CO2. Then, 20 μl of dye loading solution was added into the wells and the plates were subsequently placed into a 37° C. incubator for 60 minutes, followed by a 15 minutes' incubation at room temperature. At last, 10 μl of compounds or control agonist were added into respective wells of the assay plate during reading in FLIPR. The plate containing 5× compound and control agonist solution was placed in FLIPR. Solutions were added into the cell plate automatically at the 20 seconds and the fluorescence signal was monitored for an additional 100 seconds (21 sec to 120 sec.). Data were recorded by ScreenWorks (version 3.1) as FMD files with FLIPR and stored on the GenScript computer network for off-line analysis. Data acquisition and analyses was performed using ScreenWorks (version 3.1) program and exported to Excel. The average value of the first 20 seconds' reading was calculated as the baseline and the relative fluorescent units (ΔRFU) intensity values were calculated by subtracting the average value of baseline from the maximum fluorescent units (21 s to 120 s).
The % Stimulation was calculated with the following equation: % Stimulation=(ΔRFUCompound−ΔRFUBackground)/(ΔRFUAgonist control−ΔRFUBackground)×100
Dose response curves were fitted with four-parameter-logistic-equation by the software GraphPad Prism 6.
Equation: four parameter logistic equation. Y=Bottom+(Top-Bottom)/(1+10^((Log EC50−X)×Hillslope))
X is the logarithm of concentration. Y is the response.

[1] = Solubility in PBS (LC/UV AUC trend); conditions: PBS pH 7.4, 0.2 mg/ml; rating 1 (good) to 5 (poor)
[2] = Stability in aqueous media (PBS pH 7.4); format: physicochemical; parameters: unit not given here; conditions: phosphate buffer solution (PBS); PBS pH 7.4, 37° C., samples at T=0, 4, 24, 96 h; read-out: Stability grading (t1/2)
From the text: LC/MS data was collected for compound identity.

NC(=O)CNC(=O)[C@@H]1CCCN1C(=O)[C@H](Cc1ccc(O)cc1)NC(=O)[C@H](Cc1c[nH]c2ccccc12)NC(=O)[C@@H](Cc1ccc2ccccc2c1)NC(=O)[C@H](Cc1ccc(O)cc1)NC(=O)[C@H](CO)NC(=O)[C@H](Cc1c[nH]c2ccccc12)NC(=O)[C@H](Cc1c[nH]cn1)NC(=O)[C@@H]1CCC(=O)N1 [Compound 30, pGlu-His-Trp-Ser-Tyr-D-Nal-Trp-Tyr-Pro-Gly-amide] ([pGlu]HWSY[d2Nal]WYPG-NH2)
activation at 1 µM (GnRHR): 12% | Solubility grading [1]: 1 | half-life at 0.2 mg/ml [2]: < 96

N=C(N)NCCC[C@H](NC(=O)[C@H](Cc1c[nH]c2ccccc12)NC(=O)[C@@H](Cc1ccc2ccccc2c1)NC(=O)[C@H](Cc1ccc(O)cc1)NC(=O)[C@H](CO)NC(=O)[C@H](Cc1c[nH]c2ccccc12)NC(=O)[C@H](Cc1c[nH]cn1)NC(=O)[C@@H]1CCC(=O)N1)C(=O)N1CCC[C@H]1C(=O)NCC(N)=O [Compound 24, pGlu-His-Trp-Ser-Tyr-D-Nal-Trp-Arg-Pro-Gly-amide] ([pGlu]HWSY[d2Nal]WRPG-NH2)
activation at 1 µM (GnRHR): 87% | Solubility grading [1]: 5 | half-life at 0.2 mg/ml [2]: < 96

CCNC(=O)[C@@H]1CCCN1C(=O)[C@H](Cc1ccc(O)cc1)NC(=O)[C@H](Cc1c[nH]c2ccccc12)NC(=O)[C@@H](Cc1cn(Cc2ccccc2)cn1)NC(=O)[C@H](Cc1ccc(O)cc1)NC(=O)[C@H](CO)NC(=O)[C@H](Cc1c[nH]c2ccccc12)NC(=O)[C@H](Cc1c[nH]cn1)NC(=O)[C@@H]1CCC(=O)N1 [Compound 62, pGlu-His-Trp-Ser-Tyr-D-Bhi-Trp-Tyr-Pro-NHEt] ([pGlu]HWSY[dHis(τ-Bn)]WYP-NHEt)
activation at 1 µM (GnRHR): 77% | Solubility grading [1]: 5 | half-life at 0.2 mg/ml [2]: < 96

CCNC(=O)[C@@H]1CCCN1C(=O)[C@H](Cc1ccc(O)cc1)NC(=O)[C@H](CC(C)C)NC(=O)[C@@H](COC(C)(C)C)NC(=O)[C@H](Cc1c[nH]cn1)NC(=O)[C@H](CO)NC(=O)[C@H](Cc1c[nH]c2ccccc12)NC(=O)[C@H](Cc1c[nH]cn1)NC(=O)[C@@H]1CCC(=O)N1 [Compound 11, pGlu-His-Trp-Ser-His-D-Ser(tBu)-Leu-Tyr-Pro-NHEt] ([pGlu]HWSH[dS](tBu)LYP-NHEt)
activation at 1 µM (GnRHR): 76% | Solubility grading [1]: 1 | half-life at 0.2 mg/ml [2]: > 96

CCNC(=O)[C@@H]1CCCN1C(=O)[C@H](Cc1ccc(O)cc1)NC(=O)[C@H](CC(C)C)NC(=O)[C@@H](COC(C)(C)C)NC(=O)[C@H](Cc1ccc(O)cc1)NC(=O)[C@H](CO)NC(=O)[C@H](Cc1c[nH]c2ccccc12)NC(=O)[C@H](Cc1c[nH]cn1)NC(=O)[C@@H]1CCC(=O)N1 [Compound 9, pGlu-His-Trp-Ser-Tyr-D-Ser(tBu)-Leu-Tyr-Pro-NHEt] ([pGlu]HWSY[dS](tBu)LYP-NHEt)
activation at 1 µM (GnRHR): 78% | Solubility grading [1]: 1 | half-life at 0.2 mg/ml [2]: > 96

CCNC(=O)[C@@H]1CCCN1C(=O)[C@H](CCCNC(=N)N)NC(=O)[C@H](Cc1c[nH]c2ccccc12)NC(=O)[C@@H](Cc1cn(Cc2ccccc2)cn1)NC(=O)[C@H](Cc1ccc(O)cc1)NC(=O)[C@H](CO)NC(=O)[C@H](Cc1c[nH]c2ccccc12)NC(=O)[C@H](Cc1c[nH]cn1)NC(=O)[C@@H]1CCC(=O)N1 [Compound 67, pGlu-His-Trp-Ser-Tyr-D-Bhi-Trp-Arg-Pro-NHEt] ([pGlu]HWSY[dHis(τ-Bn)]WRP-NHEt)
activation at 1 µM (GnRHR): 117% | Solubility grading [1]: 1 | half-life at 0.2 mg/ml [2]: < 96

N=C(N)NCCC[C@H](NC(=O)[C@H](Cc1c[nH]c2ccccc12)NC(=O)[C@@H](Cc1c[nH]c2ccccc12)NC(=O)[C@H](Cc1ccc(O)cc1)NC(=O)[C@H](CO)NC(=O)[C@H](Cc1c[nH]c2ccccc12)NC(=O)[C@H](Cc1c[nH]cn1)NC(=O)[C@@H]1CCC(=O)N1)C(=O)N1CCC[C@H]1C(=O)NCC(N)=O [Compound 66, pGlu-His-Trp-Ser-Tyr-D-Trp-Trp-Arg-Pro-Gly-amide] ([pGlu]HWSY[dW]WRPG-NH2)
activation at 1 µM (GnRHR): 83% | Solubility grading [1]: 5 | half-life at 0.2 mg/ml [2]: > 96
